Bounds are passed on as bounds.

The assay concerns Human hepatic stellate cells. The assay is described as follows: Active human hepatic stellate cell dedifferentiation test (decrease in ACTA2 mRNA expression). The class given is cell-based. The following applies: 3 days differentiation then 2 days with compound, read-out: IC50 (rate of decrease in ACTA2 mRNA expression). As to the method: Human hepatic stellate cells (manufactured by ScienCell Research Laboratories, Inc., 5300) were suspended in DMEM containing 10% FBS and […] penicillin/streptomycin/amphotericin B to prepare a cell suspension of 0.5×10^5 cells/mL, which was regarded as cells at the start of differentiation. The cells at the start of differentiation were dispensed at 1 mL/well to a 12-well plate and cultured, for differentiation, for 3 days in a 5% CO2 incubator (37° C.).
The culture solution in each well was removed, and DMEM containing 10% FBS and 1% penicillin/streptomycin/amphotericin B supplemented with a test compound dissolved in DMSO (final DMSO concentration: 0.1%) was added at 1 mL/well. The resultant was further cultured for 2 days in a 5% CO2 incubator (37° C.). In Test Example 4, the same reagents as in Test Example 1 were used unless otherwise specified.
RNA in the cultured cells was extracted using NucleoSpin® RNA (manufactured by Takara Bio Inc., U0955C), and cDNA was further synthesized from the extracted RNA using Prime Script™ RT reagent Kit with gDNA Eraser (manufactured by Takara Bio Inc., RR047A). Real time PCR was performed using the synthesized cDNA, various primers and TB Green® Premix Ex Taq™ II (manufactured by Takara Bio Inc., RR820A) and using PCR Thermal Cycler Dice Real Time (manufactured by Takara Bio Inc., System Code TP910, Model Code TP900). The primers used were actin alpha 2, smooth muscle (ACTA2) primer (manufactured by Takara Bio Inc., HA136273) and glyceraldehyde-3-phosphate dehydrogenase (GAPDH) primer (manufactured by Takara Bio Inc., HA067812).
The amplification curve of PCR was analyzed by the comparative Ct method. The expression level of ACTA2 mRNA was corrected with the expression level of GAPDH mRNA. An ACTA2 mRNA expression level when DMSO was added instead of the test compound was defined as 100%, and an ACTA2 mRNA expression level in the cells at the start of differentiation was defined as 0%. The rate of decrease in ACTA2 mRNA expression by the test compound was calculated according to the following expression.
Rate of decrease in ACTA2 mRNA expression (%)=[1−{(ACTA2 mRNA expression level in the case of adding the test compound)−(ACTA2 mRNA expression level in the cells at the start of differentiation)}/{(ACTA2 mRNA expression level in the case of adding DMSO)−(ACTA2 mRNA expression level in the cells at the start of differentiation)}]×100
An IC50 value was calculated from the rate of decrease in ACTA2 mRNA expression by the test compound. A: IC50<10 nM, B: 10 nM≤IC50<50 nM, C: 50 nM≤IC50<100 nM, or D: IC50≥100 nM.

Consider `O=C(O)C[C@H](NC(=O)CNC(=O)c1cc(NC2=NCC(F)CN2)c2cn[nH]c2c1)c1cccc(-n2cccn2)c1` (stereo partly drawn) [Example 43-(b), (3S)-3-(3-(1H-pyrazol-1-yl)phenyl)-3-(2-(4-((5-fluoro-1,4,5,6-tetrahydropyrimidin-2-yl)amino)-1H-indazole-6-carboxamido)acetamido)propanoic acid], for which the IC50 (usually the point on the concentration scale where inhibition reaches its midpoint) lay within 0.01 to 0.05 µM.
Next, `O=C(O)C[C@H](NC(=O)CNC(=O)c1cc(NC2=NCC(F)CN2)c2cn[nH]c2c1)c1cccc(C(F)(F)F)c1Cl` (stereo partly drawn) [Example 10-(b), (3S)-3-(2-chloro-3-(trifluoromethyl)phenyl)-3-(2-(4-((5-fluoro-1,4,5,6-tetrahydropyrimidin-2-yl)amino)-1H-indazole-6-carboxamido)acetamido)propanoic acid]: ≥ 0.1 µM; `O=C(O)C[C@H](NC(=O)CNC(=O)c1cc(NC2=NCC(F)CN2)c2cn[nH]c2c1)c1cccc(OC(F)F)c1` (stereo partly drawn) [Example 37-(b), (3S)-3-(3-(difluoromethoxy)phenyl)-3-(2-(4-((5-fluoro-1,4,5,6-tetrahydropyrimidin-2-yl)amino)-1H-indazole-6-carboxamido)acetamido)propanoic acid]: 0.01 to 0.05 µM; `O=C(O)C[C@H](NC(=O)CNC(=O)c1cc(NC2=NCC(F)CN2)c2cn[nH]c2c1)c1cc(Cl)cc(I)c1` (stereo partly drawn) [Example 21-(b), (3S)-3-(3-chloro-5-iodophenyl)-3-(2-(4-((5-fluoro-1,4,5,6-tetrahydropyrimidin-2-yl)amino)-1H-indazole-6-carboxamido)acetamido)propanoic acid]: 0.01 to 0.05 µM.
With `O=C(O)C[C@H](NC(=O)CNC(=O)c1cc(NC2=NCC(F)CN2)c2cn[nH]c2c1)c1cc(Cl)cc(OC(F)(F)F)c1` (stereo partly drawn) [Example 31-(b), (3S)-3-(3-chloro-5-(trifluoromethoxy)phenyl)-3-(2-(4-((5-fluoro-1,4,5,6-tetrahydropyrimidin-2-yl)amino)-1H-indazole-6-carboxamido)acetamido)propanoic acid] the figure was < 0.01 µM; with `O=C(O)C[C@H](NC(=O)CNC(=O)c1cc(NC2=NCC(F)CN2)c2cn[nH]c2c1)c1cc(Br)cc(Br)c1` (stereo partly drawn) [Example 19-(b), (3S)-3-(3,5-dibromophenyl)-3-(2-(4-((5-fluoro-1,4,5,6-tetrahydropyrimidin-2-yl)amino)-1H-indazole-6-carboxamido)acetamido)propanoic acid], < 0.01 µM.
Next, `O=C(O)C[C@H](NC(=O)CNC(=O)c1cc(NC2=NCC(F)CN2)c2cn[nH]c2c1)c1cc(F)cc(C(F)(F)F)c1` (stereo partly drawn) [Example 6-(b), (3S)-3-(2-(4-((5-fluoro-1,4,5,6-tetrahydropyrimidin-2-yl)amino)-1H-indazole-6-carboxamido)acetamido)-3-(3-fluoro-5-(trifluoromethyl)phenyl)propanoic acid]: 0.01 to 0.05 µM; `O=C(O)C[C@H](NC(=O)CNC(=O)c1cc(NC2=NCC(F)CN2)c2cn[nH]c2c1)c1cccc(Cl)c1` (stereo partly drawn) [Example 41-(b), (3S)-3-(3-chlorophenyl)-3-(2-(4-((5-fluoro-1,4,5,6-tetrahydropyrimidin-2-yl)amino)-1H-indazole-6-carboxamido)acetamido)propanoic acid]: 0.01 to 0.05 µM.
`O=C(O)C[C@H](NC(=O)CNC(=O)c1cc(NC2=NCC(F)CN2)c2cn[nH]c2c1)c1cc(I)cc(C(F)(F)F)c1` (stereo partly drawn) [Example 3-(b), (3S)-3-(2-(4-((5-fluoro-1,4,5,6-tetrahydropyrimidin-2-yl)amino)-1H-indazole-6-carboxamido)acetamido)-3-(3-iodo-5-(trifluoromethyl)phenyl)propanoic acid]: the IC50 was 0.01 to 0.05 µM.
With `O=C(O)C[C@H](NC(=O)CNC(=O)c1cc(NC2=NCC(F)CN2)c2cn[nH]c2c1)c1ccc(F)c(OC(F)(F)F)c1` (stereo partly drawn) [Example 34-(b), (3S)-3-(2-(4-((5-fluoro-1,4,5,6-tetrahydropyrimidin-2-yl)amino)-1H-indazole-6-carboxamido)acetamido)-3-(4-fluoro-3-(trifluoromethoxy)phenyl)propanoic acid], the concentration for half-maximal inhibition (IC50) is 0.01 to 0.05 µM.
With `O=C(O)C[C@H](NC(=O)CNC(=O)c1cc(NC2=NCC(F)CN2)c2cn[nH]c2c1)c1cccc(C2CC2)c1` (stereo partly drawn) [Example 39-(b), (3S)-3-(3-cyclopropylphenyl)-3-(2-(4-((5-fluoro-1,4,5,6-tetrahydropyrimidin-2-yl)amino)-1H-indazole-6-carboxamido)acetamido)propanoic acid] the figure was < 0.01 µM.
As for `COc1ccc([C@H](CC(=O)O)NC(=O)CNC(=O)c2cc(NC3=NCC(F)CN3)c3cn[nH]c3c2)cc1Br` (stereo partly drawn) [Example 16-(b), (3S)-3-(3-bromo-4-methoxyphenyl)-3-(2-(4-((5-fluoro-1,4,5,6-tetrahydropyrimidin-2-yl)amino)-1H-indazole-6-carboxamido)acetamido)propanoic acid], the IC50 was < 0.01 µM.
With `O=C(O)C[C@H](NC(=O)CNC(=O)c1cc(NC2=NCC(F)CN2)c2cn[nH]c2c1)c1cccc(C(F)(F)F)c1F` (stereo partly drawn) [Example 9-(b), (3S)-3-(2-(4-((5-fluoro-1,4,5,6-tetrahydropyrimidin-2-yl)amino)-1H-indazole-6-carboxamido)acetamido)-3-(2-fluoro-3-(trifluoromethyl)phenyl)propanoic acid] the figure was 0.01 to 0.05 µM; with `O=C(O)C[C@H](NC(=O)CNC(=O)c1cc(NC2=NCC(F)CN2)c2cn[nH]c2c1)c1cc(Cl)cc(Cl)c1` (stereo partly drawn) [Example 17-(b), (3S)-3-(3,5-dichlorophenyl)-3-(2-(4-((5-fluoro-1,4,5,6-tetrahydropyrimidin-2-yl)amino)-1H-indazole-6-carboxamido)acetamido)propanoic acid], 0.01 to 0.05 µM.
With `O=C(O)C[C@H](NC(=O)CNC(=O)c1cc(NC2=NCC(F)CN2)c2c(F)n[nH]c2c1)c1cc(Cl)cc(C(F)(F)F)c1` (stereo partly drawn) [Example 48-(b), (3S)-3-(3-chloro-5-(trifluoromethyl)phenyl)-3-(2-(3-fluoro-4-((5-fluoro-1,4,5,6-tetrahydropyrimidin-2-yl)amino)-1H-indazole-6-carboxamido)acetamido) propanoic acid] the figure was < 0.01 µM; with `O=C(O)C[C@H](NC(=O)CNC(=O)c1cc(NC2=NCC(F)CN2)c2cn[nH]c2c1)c1cccc(Br)c1` (stereo partly drawn) [Example 42-(b), (3S)-3-(3-bromophenyl)-3-(2-(4-((5-fluoro-1,4,5,6-tetrahydropyrimidin-2-yl)amino)-1H-indazole-6-carboxamido)acetamido)propanoic acid], 0.01 to 0.05 µM.
With `O=C(O)C[C@H](NC(=O)CNC(=O)c1cc(NC2=NCC(F)CN2)c2cn[nH]c2c1)c1cccc(C(F)F)c1` (stereo partly drawn) [Example 38-(b), (3S)-3-(3-(difluoromethyl)phenyl)-3-(2-(4-((5-fluoro-1,4,5,6-tetrahydropyrimidin-2-yl)amino)-1H-indazole-6-carboxamido)acetamido)propanoic acid] the figure was < 0.01 µM.
Consider `O=C(O)C[C@H](NC(=O)CNC(=O)c1cc(NC2=NCC(F)CN2)c2cn[nH]c2c1)c1cccc(OC(F)(F)F)c1` (stereo partly drawn) [Example 36-(b), (3S)-3-(2-(4-((5-fluoro-1,4,5,6-tetrahydropyrimidin-2-yl)amino)-1H-indazole-6-carboxamido)acetamido)-3-(3-(trifluoromethoxy)phenyl)propanoic acid], for which the 50% inhibitory concentration (IC50) lay in the range of 0.01 to 0.05 µM.
With `O=C(O)C[C@H](NC(=O)CNC(=O)c1cc(NC2=NCC(F)CN2)c2cn[nH]c2c1)c1cc(OC(F)F)cc(OC(F)F)c1` (stereo partly drawn) [Example 30-(b), (3S)-3-(3,5-bis(difluoromethoxy)phenyl)-3-(2-(4-((5-fluoro-1,4,5,6-tetrahydropyrimidin-2-yl)amino)-1H-indazole-6-carboxamido)acetamido)propanoic acid] the figure was < 0.01 µM; with `O=C(O)C[C@H](NC(=O)CNC(=O)c1cc(NC2=NCC(F)CN2)cc2[nH]ncc12)c1cc(Cl)cc(C(F)(F)F)c1` (stereo partly drawn) [Example 52-(b), (3S)-3-(3-chloro-5-(trifluoromethyl)phenyl)-3-(2-(6-((5-fluoro-1,4,5,6-tetrahydropyrimidin-2-yl)amino)-1H-indazole-4-carboxamido)acetamido)propanoic acid], 0.01 to 0.05 µM.

(Values after US20230192661A1, “1, 4, 5, 6-TETRAHYDROPYRIMIDINE-2-AMINE DERIVATIVE” (UBE Corporation, priority 2020, published 2023).)
